{"source": "the supplement of paper PMC10307832", "experiment_in_all_cases": "relative viability (nuclei count vs DMSO), 5 days (fraction); higher = more cells survive", "key": {"A549": {"test_system": "A549", "method_in_brief": "(§1)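 Lung cancer cell lines were pin-tool dosed in 1536-well plates on the day after seeding, with either a lone drug or a fixed anchor-drug dose plus five library-drug doses (not always all listed) in √10 steps. Nuclei were counted on 4× images after 5 days. Relative viability is the ratio of treated-well to vehicle-well nuclei counts, with each value a median of duplicate plates.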"}, "CAL-12T": {"test_system": "CAL-12T", "method_in_brief": "as §1"}, "Calu-6": {"test_system": "Calu-6", "method_in_brief": "as §1"}, "EBC-1": {"test_system": "EBC-1", "method_in_brief": "as §1"}, "IA-LM": {"test_system": "IA-LM", "method_in_brief": "as §1"}, "LK-2": {"test_system": "LK-2", "method_in_brief": "as §1"}, "NCI-H1299": {"test_system": "NCI-H1299", "method_in_brief": "as §1"}, "NCI-H1650": {"test_system": "NCI-H1650", "method_in_brief": "as §1"}, "NCI-H1703": {"test_system": "NCI-H1703", "method_in_brief": "as §1"}}, "data": [{"smiles": "NC(=O)Nc1cc(-c2cccc(F)c2)sc1C(=O)N[C@H]1CCCNC1", "note": "[AZD7762] + CS(=O)(=O)N1CCN(Cc2cc3nc(-c4cccc5[nH]ncc45)nc(N4CCOCC4)c3s2)CC1 [Pictilisib] (partner 1 µM)", "values": [{"measurement": "relative viability", "setting": "A549; first compound 0.01 µM", "result": 0.548}, {"measurement": "relative viability", "setting": "A549; first compound 0.03162 µM", "result": 0.587}, {"measurement": "relative viability", "setting": "A549; first compound 0.1 µM", "result": 0.641}, {"measurement": "relative viability", "setting": "A549; first compound 0.3162 µM", "result": 0.368}, {"measurement": "relative viability", "setting": "A549; first compound 1 µM", "result": 0.107}, {"measurement": "relative viability", "setting": "CAL-12T; first compound 0.01 µM", "result": 0.413}, {"measurement": "relative viability", "setting": "CAL-12T; first compound 0.03162 µM", "result": 0.521}, {"measurement": "relative viability", "setting": "CAL-12T; first compound 0.1 µM", "result": 0.385}, {"measurement": "relative viability", "setting": "CAL-12T; first compound 0.3162 µM", "result": 0.405}, {"measurement": "relative viability", "setting": "CAL-12T; first compound 1 µM", "result": 0.238}, {"measurement": "relative viability", "setting": "Calu-6; first compound 0.01 µM", "result": 0.882}, {"measurement": "relative viability", "setting": "Calu-6; first compound 0.03162 µM", "result": 0.875}, {"measurement": "relative viability", "setting": "Calu-6; first compound 0.1 µM", "result": 0.691}, {"measurement": "relative viability", "setting": "Calu-6; first compound 0.3162 µM", "result": 0.17}, {"measurement": "relative viability", "setting": "Calu-6; first compound 1 µM", "result": 0.113}, {"measurement": "relative viability", "setting": "EBC-1; first compound 0.01 µM", "result": 0.429}, {"measurement": "relative viability", "setting": "EBC-1; first compound 0.03162 µM", "result": 0.447}, {"measurement": "relative viability", "setting": "EBC-1; first compound 0.1 µM", "result": 0.375}, {"measurement": "relative viability", "setting": "EBC-1; first compound 0.3162 µM", "result": 0.28}, {"measurement": "relative viability", "setting": "EBC-1; first compound 1 µM", "result": 0.166}, {"measurement": "relative viability", "setting": "IA-LM; first compound 0.01 µM", "result": 0.48}, {"measurement": "relative viability", "setting": "IA-LM; first compound 0.03162 µM", "result": 0.456}, {"measurement": "relative viability", "setting": "IA-LM; first compound 0.1 µM", "result": 0.538}, {"measurement": "relative viability", "setting": "IA-LM; first compound 0.3162 µM", "result": 0.48}, {"measurement": "relative viability", "setting": "IA-LM; first compound 1 µM", "result": 0.0832}, {"measurement": "relative viability", "setting": "LK-2; first compound 0.01 µM", "result": 0.628}, {"measurement": "relative viability", "setting": "LK-2; first compound 0.03162 µM", "result": 0.485}, {"measurement": "relative viability", "setting": "LK-2; first compound 0.1 µM", "result": 0.482}, {"measurement": "relative viability", "setting": "LK-2; first compound 0.3162 µM", "result": 0.481}, {"measurement": "relative viability", "setting": "LK-2; first compound 1 µM", "result": 0.34}, {"measurement": "relative viability", "setting": "NCI-H1299; first compound 0.01 µM", "result": 0.98}, {"measurement": "relative viability", "setting": "NCI-H1299; first compound 0.03162 µM", "result": 0.882}, {"measurement": "relative viability", "setting": "NCI-H1299; first compound 0.1 µM", "result": 0.622}, {"measurement": "relative viability", "setting": "NCI-H1299; first compound 0.3162 µM", "result": 0.248}, {"measurement": "relative viability", "setting": "NCI-H1299; first compound 1 µM", "result": 0.116}, {"measurement": "relative viability", "setting": "NCI-H1650; first compound 0.01 µM", "result": 0.62}, {"measurement": "relative viability", "setting": "NCI-H1650; first compound 0.03162 µM", "result": 0.657}, {"measurement": "relative viability", "setting": "NCI-H1650; first compound 0.1 µM", "result": 0.515}, {"measurement": "relative viability", "setting": "NCI-H1650; first compound 0.3162 µM", "result": 0.391}, {"measurement": "relative viability", "setting": "NCI-H1650; first compound 1 µM", "result": 0.155}, {"measurement": "relative viability", "setting": "NCI-H1703; first compound 0.01 µM", "result": 0.234}, {"measurement": "relative viability", "setting": "NCI-H1703; first compound 0.03162 µM", "result": 0.252}, {"measurement": "relative viability", "setting": "NCI-H1703; first compound 0.1 µM", "result": 0.224}, {"measurement": "relative viability", "setting": "NCI-H1703; first compound 0.3162 µM", "result": 0.189}, {"measurement": "relative viability", "setting": "NCI-H1703; first compound 1 µM", "result": 0.129}]}, {"smiles": "NC(=O)Nc1cc(-c2cccc(F)c2)sc1C(=O)N[C@H]1CCCNC1", "note": "[AZD7762] + C[C@@H](Oc1cc(-c2cnn(C3CCNCC3)c2)cnc1N)c1c(Cl)ccc(F)c1Cl [Crizotinib] (partner 1 µM)", "values": [{"measurement": "relative viability", "setting": "A549; first compound 0.01 µM", "result": 0.795}, {"measurement": "relative viability", "setting": "A549; first compound 0.03162 µM", "result": 0.821}, {"measurement": "relative viability", "setting": "A549; first compound 0.1 µM", "result": 0.775}, {"measurement": "relative viability", "setting": "A549; first compound 0.3162 µM", "result": 0.424}, {"measurement": "relative viability", "setting": "A549; first compound 1 µM", "result": 0.0696}, {"measurement": "relative viability", "setting": "CAL-12T; first compound 0.01 µM", "result": 0.735}, {"measurement": "relative viability", "setting": "CAL-12T; first compound 0.03162 µM", "result": 0.554}, {"measurement": "relative viability", "setting": "CAL-12T; first compound 0.1 µM", "result": 0.486}, {"measurement": "relative viability", "setting": "CAL-12T; first compound 0.3162 µM", "result": 0.33}, {"measurement": "relative viability", "setting": "CAL-12T; first compound 1 µM", "result": 0.105}, {"measurement": "relative viability", "setting": "Calu-6; first compound 0.01 µM", "result": 0.897}, {"measurement": "relative viability", "setting": "Calu-6; first compound 0.03162 µM", "result": 0.813}, {"measurement": "relative viability", "setting": "Calu-6; first compound 0.1 µM", "result": 0.651}, {"measurement": "relative viability", "setting": "Calu-6; first compound 0.3162 µM", "result": 0.162}, {"measurement": "relative viability", "setting": "Calu-6; first compound 1 µM", "result": 0.0886}, {"measurement": "relative viability", "setting": "EBC-1; first compound 0.01 µM", "result": 0.199}, {"measurement": "relative viability", "setting": "EBC-1; first compound 0.03162 µM", "result": 0.209}, {"measurement": "relative viability", "setting": "EBC-1; first compound 0.1 µM", "result": 0.167}, {"measurement": "relative viability", "setting": "EBC-1; first compound 0.3162 µM", "result": 0.187}, {"measurement": "relative viability", "setting": "EBC-1; first compound 1 µM", "result": 0.167}, {"measurement": "relative viability", "setting": "IA-LM; first compound 0.01 µM", "result": 1.04}, {"measurement": "relative viability", "setting": "IA-LM; first compound 0.03162 µM", "result": 0.907}, {"measurement": "relative viability", "setting": "IA-LM; first compound 0.1 µM", "result": 1.26}, {"measurement": "relative viability", "setting": "IA-LM; first compound 0.3162 µM", "result": 0.858}, {"measurement": "relative viability", "setting": "IA-LM; first compound 1 µM", "result": 0.277}, {"measurement": "relative viability", "setting": "LK-2; first compound 0.01 µM", "result": 0.203}, {"measurement": "relative viability", "setting": "LK-2; first compound 0.03162 µM", "result": 0.221}, {"measurement": "relative viability", "setting": "LK-2; first compound 0.1 µM", "result": 0.225}, {"measurement": "relative viability", "setting": "LK-2; first compound 0.3162 µM", "result": 0.203}, {"measurement": "relative viability", "setting": "LK-2; first compound 1 µM", "result": 0.228}, {"measurement": "relative viability", "setting": "NCI-H1299; first compound 0.01 µM", "result": 0.966}, {"measurement": "relative viability", "setting": "NCI-H1299; first compound 0.03162 µM", "result": 0.975}, {"measurement": "relative viability", "setting": "NCI-H1299; first compound 0.1 µM", "result": 0.974}, {"measurement": "relative viability", "setting": "NCI-H1299; first compound 0.3162 µM", "result": 0.826}, {"measurement": "relative viability", "setting": "NCI-H1299; first compound 1 µM", "result": 0.307}, {"measurement": "relative viability", "setting": "NCI-H1650; first compound 0.01 µM", "result": 1.18}, {"measurement": "relative viability", "setting": "NCI-H1650; first compound 0.03162 µM", "result": 1.03}, {"measurement": "relative viability", "setting": "NCI-H1650; first compound 0.1 µM", "result": 0.864}, {"measurement": "relative viability", "setting": "NCI-H1650; first compound 0.3162 µM", "result": 0.603}, {"measurement": "relative viability", "setting": "NCI-H1650; first compound 1 µM", "result": 0.207}, {"measurement": "relative viability", "setting": "NCI-H1703; first compound 0.01 µM", "result": 0.314}, {"measurement": "relative viability", "setting": "NCI-H1703; first compound 0.03162 µM", "result": 0.169}, {"measurement": "relative viability", "setting": "NCI-H1703; first compound 0.1 µM", "result": 0.136}, {"measurement": "relative viability", "setting": "NCI-H1703; first compound 0.3162 µM", "result": 0.0849}, {"measurement": "relative viability", "setting": "NCI-H1703; first compound 1 µM", "result": 0.105}]}]}
